Experimental data: publication PMC8786932, “Bicyclic azetidines target acute and chronic stages of Toxoplasma gondii by inhibiting parasite phenylalanyl t-RNA synthetase” (Nature Communications, 2022)
Like-named read-outs stand apart in the source and are kept apart here.

Columns and labels:
[1] = system: N. caninum expressing lacZ; test: Neospora caninum β-galactosidase assay; format: cell-based; details: Neospora caninum
Description: β-galactosidase assays were conducted using tissue culture grade 96-well plates (TPP) containing confluent monolayers of HFF cells. A 10-point compound dilution series (2-fold) for each compound was generated as described above (2X concentration, 0.1% final DMSO). Growth of the N. caninum strain expressing lacZ was monitoring using a β-galactosidase (β-gal) assay as described in[21] with the following modifications. N. caninum lacZ expressing parasites (1 × 10^3) were added (in 100 μL volume) into 96-well plates containing HFF monolayers to reach final compound concentration (5.0 μM to 0.002 μM in 200 μL total volume). Plates were incubated at 37 °C, 5% CO2 for 72 h prior to completing β-gal assay as previously described[23],[27],[51]. Briefly, parasite containing monolayers were lysed with 1.0% Triton X-100 and β-gal activity determined by adding 1 mM chlorophenolred-β-D-galactopyranoside followed by monitoring absorption at 570 nm on a Cytation 3 multi-mode imager (BioTek), as described.

[2] = system: T. gondii RHΔΔ TgPheRS[M484I]; test: Tachyzoite lytic assay, M484I mutant; format: cell-based; details: Toxoplasma gondii
Description: In vitro cultures of HFF cells containing mature vacuoles were scraped, passaged through 23 g blunt end needles, and filtered using 3 micron filters. Purified parasites were resuspended in 350 μL of cytomix plus[49] and combined in a BTX 4 mm gap cuvette with 30 μL of PCR amplified templates corresponding to mutations of interest and 10 μg of pSAG1:Cas9-GFP U6:sgTgPheRS^[mut] (in 20 μL, 400 μL total volume, see Supplementary Data 1 for sgRNA sequences) prior to electroporation using a BTX ETM 830 electroporator. Amplified templates for TgPheRS mutations were generated from gBlocks (Integrated DNA Technologies, Coralville, IA, USA) that contain a BclI restriction site that replaces the PAM sequence to protect the repair template from being cut by Cas9. […]
Parasite growth on HFF monolayers was monitored using a 96-well plate-based lytic assay modified from a previously described protocol. […] Plates were rinsed with water, air dried, and absorption quantified on the Cytation 3 multi-mode imager at 570 nm wavelength. % parasite growth was calculated as 100−[(OD value for infected cultures at each concentration of compound/average OD value for no compound and no parasite infection) × 100]. EC50 values were calculated based on the mean of three biological replicates with each replicate containing two technical replicates.

in vivo = test: in vivo; set-up: species or system mouse; Plasma free: unit not given here; details: for Kp / Cmax / MRT / Tmax / AUC(0-t) / AUC(0-inf) / CL/F / half-life: female, CD1, mouse, in vivo; for Cmax / MRT / Tmax / AUC(0-t) / AUC(0-inf) / CL/F / half-life: po, 10 mg/kg/day; for Cmax / MRT / Tmax / AUC(0-t) / AUC(0-inf) / CL/F / half-life / Vd: mouse, 10 mg/kg/day p.o.; for AUC(0-t): read-out: AUC0–24
Description: […]. All mice were fed prior to dosing. After dosing, 200 uL of blood was collected at predetermined time points (pre, 1, 3, 7, 24 h). Blood samples were processed for plasma by centrifugation at approximately 4 °C, 4,500 g for 15 min within […]. Plasma samples were stored in polypropylene tubes, quick frozen over dry ice and kept at −70 ± 10 °C until LC/MS/MS analysis. Plasma concentration versus time data was analyzed by non-compartmental approaches using the Phoenix WinNonlin 6.3 software program. Brain tissue samples were taken at day 1, 4, and 8. Tissue samples were processed by centrifugation at approximately 10 °C, 17,000 g for 30 min within 30 min of collection.

[3] = 30 mg/kg oral vs 10 mg/kg
C. parvum = C. parvum mouse model; cited from earlier work

## COc1ccc(NC(=O)N2CCCCN3[C@H](CN(C)C)[C@H](c4ccc(C#Cc5ccccc5)cc4)[C@@H]3C2)cc1 [BRD7929]
[1]; Table S3, 72 h, lacZ, read-out: N. caninum EC50
  EC50: 42 nM
[1]; read-out: N. caninum (EC50, Fig S2 source data)
  EC50: 42.4 nM
[2]; 72 h, read-out: EC50, M484I
  EC50: 93 nM
[2]; read-out: EC50 (growth restriction)
  EC50: 65 nM
In vivo; 10 mg/kg p.o. daily, 8 days, unbound
  free concentration in plasma vs EC50: remained below the EC50 for most of the duration
In vivo; 10 mg/kg p.o. daily, mean, time 1:00:00
  Plasma free: 7.292
In vivo; 10 mg/kg p.o. daily, mean, time 24:00:00
  Brain free: 24.8595
In vivo; brain/plasma, Day 1, read-out: Kp (Cb/Cp)
  Kp: 169
In vivo; brain/plasma, Day 4, read-out: Kp (Cb/Cp)
  Kp: 211
In vivo; brain/plasma, Day 8, read-out: Kp (Cb/Cp)
  Kp: 577
In vivo; Day 1
  Cmax: 153 ng/mL
  MRT: 13.1 h
  Tmax: 18.3 h
  AUC(0-t): 3190 ng·h/mL
In vivo; Day 4
  AUC(0-inf): 27700 ng·h/mL
  CL/F: 7.1 mL/min/kg
  Cmax: 330 ng/mL
  MRT: 11.7 h
  Tmax: 4.3 h
  half-life: 64.6 h
  AUC(0-t): 6360 ng·h/mL
  Vd: 32 L/kg
In vivo; Day 8
  AUC(0-inf): 20000 ng·h/mL
  CL/F: 10 mL/min/kg
  Cmax: 207 ng/mL
  MRT: 12 h
  Tmax: 5 h
  half-life: 81.3 h
  AUC(0-t): 4390 ng·h/mL
  Vd: 62 L/kg
In vivo; unbound brain/plasma, Day 1, read-out: Kpu,u (Cb/Cp)
  Kp: 2.1
In vivo; unbound brain/plasma, Day 4, read-out: Kpu,u (Cb/Cp)
  Kp: 2.6
In vivo; unbound brain/plasma, Day 8, read-out: Kpu,u (Cb/Cp)
  Kp: 7.2
In vivo; read-out: Kp u,u, concentration in brain vs. plasma
  Kp: 2 to 7
In vivo; time 3:00:00
  Plasma free: 9.26
In vivo; time 7:00:00
  Plasma free: 10.41
In vivo; time 24:00:00
  Plasma free: 11.33
In vivo; time 72:00:00
  Plasma free: 12.09
In vivo; time 73:00:00
  Plasma free: 19.13
In vivo; time 75:00:00
  Plasma free: 25.02
In vivo; time 79:00:00
  Plasma free: 22.5
In vivo; time 96:00:00
  Brain free: 44.7005
  Plasma free: 17.52
In vivo; time 168:00:00
  Plasma free: 12.4
In vivo; time 169:00:00
  Plasma free: 14.08
In vivo; time 171:00:00
  Plasma free: 14.92
In vivo; time 175:00:00
  Plasma free: 15.38
In vivo; time 192:00:00
  Brain free: 77.3745
  Plasma free: 12.86
[3]
  plasma levels at increased dose: did not lead to a proportional increase in plasma levels

## COc1ccc(NC(=O)N2CCCCN3[C@H](CO)[C@H](c4ccc(C#Cc5ccccc5)cc4)[C@@H]3C2)cc1 [BRD3444]
C. parvum
  reduction of oocyst shedding: 96%
